Data reported in US11679107B2 (Eisai R&D Management Co., Ltd., priority 2018, dated 2023).
Where two headings read alike, the source gives them in different places.

Columns and labels:
SF3b complexes = target: T1, SF3b complexes (Homo sapiens, UniProt O75533+Q7RTV0); assay: Scintillation proximity assay (SPA) with [3H]-labelled pladienolide probe; format: binding; details: SF3B1 (WT); geometric mean; read-out: SPA-ATS GMean IC50 (nM) SF3B1 (WT)
T1 construct: endogenous in cells; host or cells: Nuclear extracts; A HeLa S3 extract preparation is described for the in vitro splicing assay
How it was run: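 SF3b complexes captured from nuclear extracts on anti-SF3B1 antibody SPA beads; test compounds pre-incubated 30 min before 2.5 nM [3H]-pladienolide probe added, then 30 min incubation. Bound probe read by scintillation; values from non-linear regression of concentration–response curves.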

[1] = test system: Ad2 variant pre-mRNAs spliced in HeLa S3 nuclear extracts; assay: In vitro splicing assay (IVS), RT-qPCR of spliced product; format: biochemical; details: geometric mean
How it was run: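 Read-out is one-step TaqMan RT-qPCR of spliced Ad2 mRNA with Ftz as reference, normalized to DMSO and fit by non-linear regression. Reactions held HeLa S3 nuclear extract, 2 ng Ad2-derived pre-mRNA and test compound, with 15 min preincubation. Splicing was started with ATP-containing activation buffer and run 90 min at 30 °C.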

[2] = test system: NCI-H1568 cells (high MCL1); assay: Cell proliferation and viability, CellTiter-Glo, 72 hours; format: cell-based; details: for GI50: geometric mean; for CTGlo-ATS Mean MinResponse % 72 h NCIH1568.1: −100% cidal, 0% static, 100% maximal growth
How it was run: (§1)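 ATP luminescence (CellTiter-Glo) was measured 72 h after treatment with compound at 10 μM–100 pM (11 points, half-log) in 0.1% DMSO. The Panc line was grown in RPMI-1640 plus insulin and 15% FBS, the other in 10% FBS. Data were normalised to time zero and vehicle controls, where −100% is cidal and 0% static.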

[3] = test system: Panc 05.04 cells (SF3b K700E mutant); assay: as above; format: cell-based; details: for CTGlo-ATS Mean MinResponse % 72 h PANC0504.1: −100% cidal, 0% static, 100% maximal growth; for GI50: geometric mean
How it was run: as §1

[4] = Ad2.1 pre-mRNA substrate, read-out: qPCR-IVS-ATS GMean IC50 (nM) Ad2.1
[5] = Ad2.2 pre-mRNA substrate, read-out: qPCR-IVS-ATS GMean IC50 (nM) Ad2.2
[6] = NCI-H1568, read-out: CTGlo-ATS GMean GI50 (nM) 72 h NCIH1568.1, NCIH1568.1 cells, 72 h
[7] = Panc 05.04, read-out: CTGlo-ATS GMean GI50 (nM) 72 h PANC0504.1, PANC0504.1 cells, 72 h
[8] = NCI-H1568, 72 h, read-out: CTGlo-ATS GMean GI50 (nM) 72 h NCIH1568.1, NCIH1568.1 cells, 72 h
[9] = Panc 05.04, 72 h, read-out: CTGlo-ATS GMean GI50 (nM) 72 h PANC0504.1, PANC0504.1 cells, 72 h

Row | Structure (SMILES) | IC50 (SF3b complexes) [nM] | IC50 [1, 4] [nM] | IC50 [1, 5] [nM] | GI50 [2, 6] [nM] | CTGlo-ATS Mean MinResponse % 72 h NCIH1568.1 ([2]; NCIH1568.1 cells, 72 h) [%] | CTGlo-ATS Mean MinResponse % 72 h PANC0504.1 ([3]; PANC0504.1 cells, 72 h) [%] | GI50 [3, 7] [nM] | GI50 [2, 8] [nM] | GI50 [3, 9] [nM]
1 | C/C(=C\c1cc(F)cc(N2CC3CCC(C2)O3)c1)[C@H]1OC(=O)C[C@H](O)CC[C@H](C)[C@@H](OC(=O)N2CCN(C)CC2)/C=C/[C@@H]1C [Compound 32] | 3.24 | 19.5 | 16.2 | 10 | −74.701 | −69.289 | 6.53 | – | –
2 | C/C(=C\c1cc(F)cc(N2CCC3(COC3)C2)c1)[C@H]1OC(=O)C[C@H](O)CC[C@H](C)[C@@H](OC(=O)N2CCN(C)CC2)/C=C/[C@@H]1C [Compound 33] | 5.58 | 28.4 | 27.6 | 12 | −73.122 | −77.334 | 10 | – | –
3 | C/C(=C\c1cc(F)cc(N2CC[C@@H](O)C2)c1)[C@H]1OC(=O)C[C@H](O)CC[C@H](C)[C@@H](OC(=O)N2CCN(C)CC2)/C=C/[C@@H]1C [Compound 34] | 3.18 | 56.5 | 26.9 | – | −55.438 | −85.656 | – | 9.46 | 14
4 | C/C(=C\c1cc(F)cc(N2CCC(=O)C2)c1)[C@H]1OC(=O)C[C@H](O)CC[C@H](C)[C@@H](OC(=O)N2CCN(C)CC2)/C=C/[C@@H]1C [Compound 35] | 4.78 | 913 | 27.1 | 107 | −46.227 | −87.702 | 53.2 | – | –
5 | C/C(=C\c1cc(F)cc(N2CCOCC2)c1)C1OC(=O)C[C@H](O)CC[C@H](C)[C@@H](OC(=O)N2CCN(C3CCOCC3)CC2)/C=C/[C@@H]1C (stereo partly shown) [Compound 36] | 3.49 | 236 | 32.9 | – | −54.389 | −84.494 | – | 25.4 | 19
6 | C/C(=C\c1cc(F)cc(N2CCOCC2)c1)[C@H]1OC(=O)C[C@H](O)CC[C@H](C)[C@@H](OC(=O)N(C)C2CCCN(C)C2)/C=C/[C@@H]1C (stereo partly shown) [Compound 37] | 2.27 | 85.8 | 20.2 | 4.75 | −82.247 | −86.134 | 4.61 | – | –
7 | C/C(=C\c1cc(F)cc(N2CC(F)C2)c1)[C@H]1OC(=O)C[C@H](O)CC[C@H](C)[C@@H](OC(=O)N2CCN(C)CC2)/C=C/[C@@H]1C [Compound 38] | 3.1 | 1020 | 25.2 | 19.6 | −54.093 | −88.672 | 14.4 | – | –
8 | CN[C@H]1CCN(c2cc(F)cc(/C=C(\C)[C@H]3OC(=O)C[C@H](O)CC[C@H](C)[C@@H](OC(=O)N4CCN(C)CC4)/C=C/[C@@H]3C)c2)C1 [Compound 39] | 26 | 63.1 | 32 | 45.6 | −97.412 | −89.747 | 50.1 | – | –
9 | C/C(=C\c1cc(F)cc(N2CCOCC2)c1)[C@H]1OC(=O)C[C@H](O)CC[C@H](C)[C@@H](OC(=O)N2CCCC(N(C)C)C2)/C=C/[C@@H]1C (stereo partly shown) [Compound 40] | 3.98 | 55.9 | 28.1 | 13.3 | −72.259 | −82.881 | 7.75 | – | –
10 | C/C(=C\c1cc(F)cc(N2CCC[C@H]2C)c1)[C@H]1OC(=O)C[C@H](O)CC[C@H](C)[C@@H](OC(=O)N2CCN(C)CC2)/C=C/[C@@H]1C [Compound 41] | 8.26 | 221 | 39.2 | – | −77.375 | −82.009 | – | 21.4 | 15.8
